Patent publication US10258048B2, “Bacillus sp. strain with antifungal, antibacterial and growth promotion activity” (Marrone Bio Innovations, Inc, priority 2012, dated 2019)

System: Bacillus sp. isolate F727
Assay: Antibiotic susceptibility of Bacillus sp. isolate F727, antibiotic discs on Mueller-Hinton agar
Assay type: cell-based
Design: key: +++ indicates highly susceptible (no growth); ++ indicates moderately susceptible (reduced growth); − indicates no susceptibility
Conditions: pre-loaded antibiotic discs (load in ug); 25° C., 48 hours
Procedure: Antibiotic susceptibility of Bacillus sp. isolate F727 was tested using antibiotic discs on Muller-Hinton medium. A loopful of F727 was resuspended in 1 mL of sterile deionized water, and 100 μL of this suspension was streaked onto a Mueller-Hinton agar plate. After absorption of the streak into the agar, pre-loaded antibiotic discs were placed on the plate, and the plate was incubated at 25° C. for 48 hours.

Row | Molecule | Susceptibility of Bacillus sp. F727 to various antibiotics
1 | CO/N=C(\C(=O)N[C@@H]1C(=O)N2C(C(=O)O)=C(COC(N)=O)CS[C@H]12)c1ccco1 [Cefuroxime] | +++
2 | O=C(N[C@H](CO)[C@H](O)c1ccc([N+](=O)[O-])cc1)C(Cl)Cl [Chloramphenicol] | +++
3 | O=C(O)c1cn(C2CC2)c2cc(N3CCNCC3)c(F)cc2c1=O [Ciprofloxacin] | +++
4 | Sulphamethoxazole-Trimethoprim | +++
5 | [H]/N=C(/N)N[C@H]1[C@H](O)[C@@H](O)[C@H](O[C@@H]2O[C@@H](C)[C@](O)(C=O)[C@H]2O[C@@H]2O[C@@H](CO)[C@H](O)[C@@H](O)[C@@H]2NC)[C@@H](N/C(N)=N\[H])[C@@H]1O [Streptomycin] | ++
6 | CN(C)[C@@H]1C(O)=C(C(N)=O)C(=O)[C@@]2(O)C(O)=C3C(=O)c4c(O)cccc4[C@@](C)(O)[C@H]3[C@H](O)[C@@H]12 [Oxytetracycline] | +++
7 | NC[C@H]1O[C@H](O[C@H]2[C@H](O)[C@@H](O[C@H]3O[C@H](CO)[C@@H](O)[C@H](N)[C@H]3O)[C@H](N)C[C@@H]2N)[C@H](O)[C@@H](O)[C@@H]1O [Kanamycin] | +++
8 | CC[C@H]1OC(=O)[C@H](C)[C@@H](O[C@H]2C[C@@](C)(OC)[C@@H](O)[C@H](C)O2)[C@H](C)[C@@H](O[C@@H]2O[C@H](C)C[C@H](N(C)C)[C@H]2O)[C@](C)(O)C[C@@H](C)C(=O)[C@H](C)[C@@H](O)[C@]1(C)O [Erythromycin] | +++
9 | Gentamicin | +++
10 | Penicillin | +++
11 | CN(C)[C@@H]1C(O)=C(C(N)=O)C(=O)[C@@]2(O)C(O)=C3C(=O)c4c(O)cccc4[C@@](C)(O)[C@H]3C[C@@H]12 [Tetracycline] | +++
12 | C[C@@H](O)[C@H]1C(=O)N2C(C(=O)O)=C(SCCN=CN)C[C@H]12 [Imipenem] | +++
13 | CCN1CCN(C(=O)N[C@@H](C(=O)N[C@@H]2C(=O)N3[C@@H]2SC(C)(C)[C@@H]3C(=O)O)c2ccccc2)C(=O)C1=O [Piperacillin] | +++
14 | CC1(C)S[C@@H]2[C@H](NC(=O)[C@H](N)c3ccccc3)C(=O)N2[C@H]1C(=O)O [Ampicillin] | +++
